Results taken from patent publication US20150018369A1 (priority 2012, published 2015).

How the values were obtained:
T98 g cells = test: Cell viability assay (WST-1), SAR of AI compounds at inducing cell death; format: cell-based, human; conditions: Homo sapiens, T98G, 72 h
Method: Cells were plated media supplemented with 10% serum in 96-well plates (10^4 cells per wellI; 0.1 ml per well). Once they reached ˜70% confluence, they were rinsed with PBS and kept for an additional 24 his in media supplemented with 1% serum, at which time drugs or vehicle (DMSO, 0.1%, prepared in 10 μl serum-free media) were directly added to each well. After 3 days, cell viability was assessed using the Cell Proliferation Reagent WST-1 (Roche, Indianapolis, Ind.). Briefly, WST-1 reagent (10 μl) was added to each well for 3 hrs at 37° C. with 5% CO2 and WST-1 products were read at 450 nm using Packard SpectraCount™.
Because the strongest toxic effect of WIN55212-2 (ST-1) was measured in T98 g cells, these cells are used as readout to study the structure activity relationship (SAR) of AI compounds at inducing cell death. Table 2 provides the chemical structure, potency and efficacy of several AI compounds.

(HEK293 cells) = test: [3H]-WIN55212-2 binding competition in HEK293 cells; design: species or system human; conditions: FIG. 2c
Method: Cells were grown to 90% confluence, rinsed twice with 1× PBS and stored at −80° C. until further use. To prepare crude cellular membrane fractions, dishes were removed from −80° C. and thawed at room temperature for 5 min. Once thawed, cells were lysed with ice-cold homogenization buffer (50 mM Tris, 1 mM EDTA, 3 mM MgCl2) and gently scraped from the dish. Total cell lysates from 3-5 dishes were collected on ice in 3 ml of ice-cold homogenization buffer Cells were homogenized at 6,500 rpm (PRO Scientific, Oxford, Conn.) twice for 10 sec and centrifuged at 11,500 rpm for 20 min at 4° C. Supernatants were discarded and cell pellets were resuspended in homogenization buffer and tris rated 10 times in ice-cold homogenization buffer. Crude cellular membrane homogenates were stored at −80° C. until further use. […]
Due to the lipophillic nature of the tested compounds, all experiments were performed in silanized glass test tubes (Alltech, Deerfield, Ill.) with silanized pipette tips (VWR Scientific, Brisbane, Calif.) to reduce the loss of ligands. […] For competition binding assays, specific binding was calculated by subtracting the average dpm (disintegrations per minute, dpm) if non-specific points from the individual dpm values for each total binding point and expressed as either fmol/mg for saturation analyses or as a percent of total radioligand binding in competition curves. […]

DBT cells = test: Killing of DBT mouse astrocytoma cells; format: cell-based; conditions: FIG. 10c
Excerpt: Cannabinoid receptors are known to regulate cell migration.

[1] = tested on: mouse microglia in primary culture; test: IP production in mouse microglia; format: cell-based
[2] = tested on: mouse microglia in primary culture; test: Cell viability in mouse microglia; format: cell-based
DBT tumors = DBT tumors implanted in BalbC mice; format: in vivo, mouse; conditions: treated daily over 2 weeks
CB2 = CB2 (Homo sapiens, UniProt P34972); test: HA-tagged receptor internalization, CB2; format: cell-based; design: HA; expressed in transfected cells; conditions: FIG. 2b
Excerpt: FIGS. 2d and 2e illustrate the co-docking of CP55940 and either WIN55212-2 (d) or ST-11 (e) in hCB1 receptors.

Chain of CB2 (P34972 whole entry): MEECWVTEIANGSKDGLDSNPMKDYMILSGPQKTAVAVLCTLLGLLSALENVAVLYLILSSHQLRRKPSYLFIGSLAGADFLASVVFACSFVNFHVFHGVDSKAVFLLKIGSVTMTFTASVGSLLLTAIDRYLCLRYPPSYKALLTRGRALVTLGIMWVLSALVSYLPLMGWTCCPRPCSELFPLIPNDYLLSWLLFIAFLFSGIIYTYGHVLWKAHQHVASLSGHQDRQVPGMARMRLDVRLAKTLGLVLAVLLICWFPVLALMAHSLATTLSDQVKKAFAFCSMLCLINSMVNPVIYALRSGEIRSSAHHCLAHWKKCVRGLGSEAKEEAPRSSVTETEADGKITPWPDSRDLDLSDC

`CCn1c(C)c(C(=O)c2ccc(C)c3ccccc23)c2ccccc21` [ST-11] was tested, and the EC50 (T98 g cells) was 1.3 µM, the “competition for [3H]-WIN55212-2 binding” value ((HEK293 cells)) was “competes” and the “killing of DBT cells” value (DBT cells) was “kills DBT cells”. For the same compound, the IP production [1] was “does not stimulate or inhibit IP production”, the “cell viability in microglia” value [2] was “does not” and the “number of lymphocytes in DBT tumors” value (DBT tumors) was “increases the number of lymphocytes”. The “number of microglia in DBT tumors” value (DBT tumors) was “increases” and the “cross-activation of human CB2 receptors (receptor internalization)” value (CB2) was “engage CB2 receptors”.
